System: Japanese white rabbits
Assay: Ophthalmic disorder caused by 8-time-a-day instillation to white rabbits: observation of corneal staining spot
Assay type: in vivo, rabbit
Conditions: after 8th administration
Experimental: The test drugs, Compound A and Compound C, were each dissolved in the following base at a concentration of 0.125, 0.25, 0.5 and 1.0% and adjusted to pH 7 for use in this experiment. Japanese white rabbits (body weight about 2 kg) purchased from Japan Laboratory Animals, INC. were used. These animals were bred in a breeding chamber set to temperature 23±3° C., humidity 55±10% and fed on limited amount of 100 g a day of a solid feed (Labo R Stock, Nihon-Nosan Kogyo K.K.). They were allowed free access to tap water. Instillation: Using a micropipet, each test drug (100 μl) was instilled into the right eye of each animal 8 times at one hour intervals. Into the left eye was instilled a base in the same manner. Observation: anterior segment of the eye was macroscopically observed before instillation and 30 min after 2nd, 4th, 6th and 8th administrations, according to the macroscopic criteria for ocular lesions as shown in Table 1 (Naruyuki Fukui, […] no Rinshou 4, 277-289, 1970). In addition, corneal staining spot was observed before instillation and after 8th administration.

Row | Structure (SMILES) | observation of corneal staining spot (0.125% instillation) | observation of corneal staining spot (0.25% instillation, corneal epithelium) | observation of corneal staining spot (0.5% instillation, corneal epithelium) | observation of corneal staining spot (1.0% instillation, corneal epithelium) | observation of corneal staining spot (any concentration (0.125, 0.25, 0.5 and 1.0%))
1 | C[C@@H](N)c1ccc(C(=O)Nc2ccncc2)cc1.Cl.Cl [Compound C, (R)-(+)-N-(4-pyridyl)-4-(1-aminoethyl)benzamide 2HCl] | did not cause particular abnormality | abnormality in two eyes | abnormality in all eyes | abnormality in all eyes | –
2 | CC(N)[C@H]1CC[C@H](C(=O)Nc2ccncc2)CC1.Cl.Cl.O (single isomer, unassigned; (+)) [Compound A, (+)-trans-4-(1-Aminoethyl)-1-(4-pyridylcarbamoyl)cyclohexane 2HCl 1H2O] | – | – | – | – | did not lead to abnormalities
